From US12303505B2, “Tumor-treating pharmaceutical composition” (Eisai R&D Management Co., Ltd., priority 2017, dated 2025) come the findings set out here.

Holding throughout (format): in vivo
Test [1] has as its system Human hepatocellular carcinoma line HepG2 cells. Description: Antitumor effect in human hepatocellular carcinoma line HepG2 subcutaneous transplantation model, nude mice. The procedure: Human hepatocellular carcinoma line HepG2 cells (JCRB Cell Bank) were cultured by using DMEM-Low glucose medium (Wako Pure Chemical Industries, Ltd.) containing 10% FBS in a 5% CO2 incubator under conditions of 37° C. When the cells became an approximately 80% confluent state, the cells were recovered by using trypsin-EDTA. A suspension was prepared by adding phosphate-buffered saline containing 50% Matrigel to the cells so as to be 10.0×10^7 cells/mL. 0.1 mL of the obtained cell suspension was subcutaneously transplanted to the sides of the bodies of five nude mice (CAnN.Cg-Foxn1^nu/CrlCrlj, Charles River Laboratories Japan, Inc.) each of a control group, an E7386 50 mg/kg alone administration group, a lenvatinib mesylate 10 mg/kg alone administration group, and a combined administration group of 50 mg/kg E7386 and 10 mg/kg lenvatinib mesylate. From 12 days after the transplantation, E7386 (50 mg/kg, b.d.s., 14 days, oral administration) and lenvatinib mesylate (10 mg/kg, q.d., 14 days, oral administration) were administered alone or in combination to the alone administration group or the combined administration group. For the administration, E7386 was dissolved in 0.1 mol/L hydrochloric acid, and lenvatinib mesylate was dissolved in 3 mmol/L hydrochloric acid. Any drug was not administered to the control group.
When the start day of administration was defined as day 1, the major axis and minor axis of tumor developed in each mouse were then measured at day 4, day 7, day 9, day 13, and day 15 by using Digimatic Caliper (Mitutoyo Corp.).
(§1) The tumor volume and the relative tumor volume (RTV) were calculated according to the following expressions. Tumor volume (mm^3)=Tumor major axis (mm)×Tumor minor axis^2 (mm^2)/2 Relative tumor volume (RTV)=Tumor volume at the measurement day/Tumor volume at the start day of administration

Test [2] concerns Human colorectal cancer line Colo-205 cells. Description: Antitumor effect in human colorectal cancer line Colo-205 transplantation model, nude mice. As for the experimental part:
Human colorectal cancer line Colo-205 cells (ATCC) were cultured by using RPMI1640 medium (Wako Pure Chemical Industries, Ltd.) containing 10% FBS in a 5% CO2 incubator under conditions of 37° C. When the cells became an approximately 80% confluent state, the cells were recovered by using trypsin-EDTA. A suspension was prepared by adding Hank's balanced salt solution to the cells so as to be 5.0×10^7 cells/mL. 0.1 mL of the obtained cell suspension was subcutaneously transplanted to the sides of the bodies of five nude mice (CAnN.Cg-Foxn1^nu/CrlCrlj, Charles River Laboratories Japan, Inc.) each of a control group, an E7386 50 mg/kg alone administration group, a lenvatinib mesylate 10 mg/kg alone administration group, and a combined administration group of 50 mg/kg E7386 and 10 mg/kg lenvatinib mesylate. From 8 days after the transplantation, E7386 (50 mg/kg, q.d., 11 days, oral administration) and lenvatinib mesylate (10 mg/kg, q.d., 11 days, oral administration) were administered alone or in combination to the alone administration group or the combined administration group. For the administration, E73 86 was dissolved in 0.1 mol/L hydrochloric acid, and lenvatinib mesylate was dissolved in 3 mmol/L hydrochloric acid. Any drug was not administered to the control group.
When the start day of administration was defined as day 1, the major axis and minor axis of tumor developed in each mouse were then measured at day 4, day 8, and day 12 by using Digimatic Caliper (Mitutoyo Corp.).
as §1

For test [3], the system named is transgenic mouse (MMTV-Wnt-1) spontaneous breast cancer. The experiment in a line: Antitumor effect in serial transplantation model of transgenic mouse (MMTV-Wnt-1) spontaneous breast cancer, C57BL/6J mice. As for the experimental part: Spontaneous breast cancer of a transgenic mouse (MMTV-Wnt-1, The Jackson Laboratory) caused to locally express Wnt-1 in mammary gland epithelial cells was collected, transplanted in a mouse of background strain (C57BL/6J, Charles River Laboratories Japan, Inc.) by using a trocar, and passaged. The tumor thus transplanted and passaged was excised when becoming approximately 1.5 g, and prepared into approximately 30 mg of a fragment, which was subcutaneously transplanted to the sides of the bodies of five mice (C57BL/6J) each of a control group, an E7386 12.5, 25 or 50 mg/kg alone administration group, a lenvatinib mesylate 10 mg/kg alone administration group, and a combined administration group of 12.5, 25 or 50 mg/kg E7386 and 10 mg/kg lenvatinib mesylate. After confirmation of engraftment of the tumor, E7386 (12.5, 25 or 50 mg/kg, b.d.s., 14 days, oral administration) and lenvatinib mesylate (10 mg/kg, q.d., 14 days, oral administration) were administered alone or in combination to the alone administration group or the combined administration group. For the administration, E7386 was dissolved in 0.1 mol/L hydrochloric acid, and lenvatinib mesylate was dissolved in 3 mmol/L hydrochloric acid. 0.1 mol/L hydrochloric acid (b.d.s., 14 days) was administered to the control group.
When the start day of administration was defined as day 1, the major axis and minor axis of tumor developed in each mouse were then measured at day 4, day 8, day 11, and day 15 by using Digimatic Caliper (Mitutoyo Corp.).
The tumor volume and the relative tumor volume (RTV) were calculated according to the following expressions. Tumor volume (mm^3)=Tumor major axis (mm)×Tumor minor axis^2 (mm)/2 Relative tumor volume (RTV)=Tumor volume at the measurement day/Tumor volume at the start day of administration

The mark [4] stands for this setting: Day 4, E7386 50 mg/kg b.d.s. oral alone.
The mark [5] stands for this setting: Day 15, E7386 50 mg/kg b.d.s. oral alone.
Setting [6] is: Day 4, lenvatinib mesylate 10 mg/kg q.d. oral alone.
The mark [7] stands for this setting: Day 15, lenvatinib mesylate 10 mg/kg q.d. oral alone.
The mark [8] stands for this setting: Day 8, lenvatinib mesylate 10 mg/kg q.d. oral alone.

Where a name gives a salt, the structure may show the parent alone.

For the compound `C=CCN1CC(=O)N2[C@@H](Cc3ccc(O)cc3F)C(=O)N(Cc3cccc(N4CC(N5CCN(CC)CC5)C4)n3)C[C@@H]2N1C(=O)NCc1ccccc1` [E7386, (6S,9aS)—N-Benzyl-8-({6-[3-(4-ethylpiperazin-1-yl)azetidin-1-yl]pyridin-2-yl}methyl)-6-(2-fluoro-4-hydroxybenzyl)-4,7-dioxo-2-(prop-2-en-1-yl)hexahydro-2H-pyrazino[2,1-c][1,2,4]triazine-1(6H)-carboxamide], the “Relative tumor volume (RTV), mean±SD” value in test [1] (setting [4]) was 1.45 ± 0.23; in test [1] (Day 7, E7386 50 mg/kg b.d.s. oral alone), 3.05 ± 0.57; in test [1] (Day 9, E7386 50 mg/kg b.d.s. oral alone) it was 3.96 ± 0.53; in test [1] (Day 13, E7386 50 mg/kg b.d.s. oral alone), 5.60 ± 1.02; in test [1] (setting [5]) it was 6.23 ± 1.39; in test [2] (Day 4, E7386 50 mg/kg q.d. oral alone), 1.98 ± 0.24. Besides, the “Relative tumor volume (RTV), mean±SD” value in test [2] (Day 8, E7386 50 mg/kg q.d. oral alone) is given as 3.87 ± 0.74; in test [2] (Day 12, E7386 50 mg/kg q.d. oral alone) it was 4.94 ± 1.41; in test [3] (Day 4, E7386 12.5 mg/kg b.d.s. oral alone), 1.34 ± 0.25; in test [3] (Day 4, E7386 25 mg/kg b.d.s. oral alone), 1.26 ± 0.28; in test [3] (setting [4]), 0.93 ± 0.23; in test [3] (Day 8, E7386 12.5 mg/kg b.d.s. oral alone), 1.20 ± 0.40. In addition, the “Relative tumor volume (RTV), mean±SD” value in test [3] (Day 8, E7386 25 mg/kg b.d.s. oral alone) was found to be 1.56 ± 0.48; in test [3] (Day 8, E7386 50 mg/kg b.d.s. oral alone), 1.05 ± 0.26; in test [3] (Day 11, E7386 12.5 mg/kg b.d.s. oral alone), 1.70 ± 0.67; in test [3] (Day 11, E7386 25 mg/kg b.d.s. oral alone), 2.40 ± 0.22; in test [3] (Day 11, E7386 50 mg/kg b.d.s. oral alone) it was 1.34 ± 0.35; in test [3] (Day 15, E7386 12.5 mg/kg b.d.s. oral alone), 2.12 ± 0.65. The “Relative tumor volume (RTV), mean±SD” value in test [3] (Day 15, E7386 25 mg/kg b.d.s. oral alone) stood at 3.69 ± 0.92; in test [3] (setting [5]), 1.59 ± 1.03.
In the case of `COc1cc2nccc(Oc3ccc(NC(=O)NC4CC4)c(Cl)c3)c2cc1C(N)=O` [Lenvatinib mesylate, 4-(3-chloro-4-(cyclopropylaminocarbonyl)aminophenoxy)-7-methoxy-6-quinolinecarboxamide, reference compound], the “Relative tumor volume (RTV), mean±SD” value was 1.10 ± 0.08 in test [1] (setting [6]); 1.60 ± 0.94 in test [1] (Day 7, lenvatinib mesylate 10 mg/kg q.d. oral alone); 2.07 ± 0.88 in test [1] (Day 9, lenvatinib mesylate 10 mg/kg q.d. oral alone); 2.70 ± 1.47 in test [1] (Day 13, lenvatinib mesylate 10 mg/kg q.d. oral alone); 3.43 ± 1.46 in test [1] (setting [7]); 1.41 ± 0.30 in test [2] (setting [6]). Also, the “Relative tumor volume (RTV), mean±SD” value is 1.75 ± 0.13 in test [2] (setting [8]); 1.94 ± 0.31 in test [2] (Day 12, lenvatinib mesylate 10 mg/kg q.d. oral alone); 1.03 ± 0.13 in test [3] (setting [6]); 0.87 ± 0.13 in test [3] (setting [8]); 0.98 ± 0.21 in test [3] (Day 11, lenvatinib mesylate 10 mg/kg q.d. oral alone); 1.05 ± 0.25 in test [3] (setting [7]).
